This passage reports absorption maximum results from the Deep4Chem optical property database.

The data set in a line: solvent given as SMILES.

Take `c1ccc(-c2nc(-c3ccc(-c4ccc(-n5c6ccccc6c6ccccc65)cc4)cn3)oc2-c2ccccc2)cc1`: the absorption maximum is, setting by setting: (in C1CCOC1) 333 nm; (in C1COCCO1) 326 nm; (in CC#N) 330 nm; (in CC(C)=O) 333 nm; (in CC(C)OC(C)C) 334 nm; (in CCCCCC) 336 nm. The absorption maximum reads like this: (in CCCCOCCCC) 336 nm; (in CCN(CC)CC) 333 nm; (in CCOC(C)=O) 332 nm; (in CCOCC) 333 nm; (in Cc1ccccc1) 338 nm; (in c1ccccc1) 338 nm.
As for `CN(C)c1ccc(-c2nc3c(c4c2-c2ccc(C#N)cc2CC4)-c2ccc(C#N)cc2CC3)cc1`, the absorption maximum (in C1CCOC1) is on record as 344 nm; the absorption maximum (in CC#N) is recorded as 343 nm; the absorption maximum (in CCCCCC) was 348 nm; the absorption maximum (in CCOC(C)=O) came out at 333 nm; the absorption maximum (in CO) is 332 nm; the absorption maximum (in CS(C)=O) amounted to 344 nm. Also, the absorption maximum (in Cc1ccccc1) is reported as 344 nm and the absorption maximum (in ClCCl) is given as 342 nm.
Regarding `F[B-]1(F)OC(c2ccccc2)=Cc2cc3[n+](c[n+]21)[B-](F)(F)OC(c1ccccc1)=C3`, the absorption maximum (in ClCCl) was found to be 475 nm.
Take `Cc1nc2c(ccc3ccc(O)cc32)oc1=O`: where the note is “in c1ccccc1”, the absorption maximum was determined as 370 nm.
Consider `O=[N+]([O-])c1ccc(O)cc1`, for which the absorption maximum was determined as 309 nm (in CO) and 401 nm (in O).
For `COCCOCCOCCOCC(COCCOCCOCCOC)Oc1cc(/C=C/c2ccc(/C=C/[N+](=O)[O-])cc2)c(OC(COCCOCCOCCOC)COCCOCCOCCOC)cc1/C=C/c1ccc(/C=C/[N+](=O)[O-])cc1`, under “in ClCCl”, the absorption maximum is 447 nm.
With `CCCC1(CCC)c2ccccc2-c2ccc(-c3ccc(C(C)(C)C)cc3)cc21`, where the note is “in C1CCCCC1”, the absorption maximum was 314 nm.
As to `CN(C)c1ccc(-c2nc(C#N)c(C#N)n2C)cc1`, the absorption maximum reads like this: (in C1CCCCC1) 323 nm; (in CC#N) 313 nm; (in CO) 309 nm; (in ClC(Cl)Cl) 326 nm.
In turn, `c1ccc2c(c1)c1ccc3cccc4c3c1c2c1c2cccc3ccc5c6ccccc6c(c5c32)c41` had an absorption maximum (in ClCCl) of 625 nm.
Turning to `O=C1CCCc2c1[nH]c1cc3c(cc21)OCO3`, the absorption maximum runs as follows: (in C1CCOC1) 337.3 nm; (in CC#N) 335.33 nm; (in CCCCCCO) 343.23 nm; (in CCO) 338.86 nm; (in CCOC(C)=O) 335.84 nm; (in CS(C)=O) 340.34 nm. Besides, the absorption maximum was found to be 341.09 nm (in O) and 339.29 nm (in c1ccccc1).
With `CC(C)[Si](C#Cc1c2ccccc2c(C#C[Si](C(C)C)(C(C)C)C(C)C)c2nc3ccccc3nc12)(C(C)C)C(C)C`, the absorption maximum is 570 nm (in CCCCCC) and 570 nm (in ClCCl).
`O=c1oc2ccccc2cc1-c1cccc(-c2cc3ccccc3oc2=O)c1` yielded an absorption maximum (in ClC(Cl)Cl) of 330 nm.
In the case of `CN(C)c1ccc(C2=Nc3sc4c(F)c(F)c(F)c(F)c4[n+]3[B-](F)(F)O2)cc1`, the absorption maximum was found to be 434 nm (in C1CCOC1), 431 nm (in CC#N), 431 nm (in Cc1ccccc1) and 433 nm (in ClCCl).
In turn, `O=[N+]([O-])c1cccc(O)c1` registered an absorption maximum (in CO) of 329 nm and an absorption maximum (in O) of 328 nm.
In the case of `N#C/C(=C\c1ccc(Cl)cc1)c1nc(-c2ccccc2)cs1`, under “in CC#N”, the absorption maximum came to 364 nm.
`COc1c2ccccc2c(OC)c2c1c1ccc(C)cc1n2C`: the absorption maximum is 402 nm (in C1CCCCC1), 404 nm (in CC#N), 401 nm (in CO) and 405 nm (in ClCCl).
The molecule `C(=C\c1ccc(-c2cccc3ccccc23)s1)/c1cccs1` had an absorption maximum (in ClCCl) of 370 nm.
In turn, `COc1ccc(-c2c3cc4ccccc4cc3c(-c3ccc(OC)cc3)c3cc4ccccc4cc23)cc1` yielded an absorption maximum (in ClCCl) of 602 nm.
As to `CC/C=C/C=C/C=C/C=C/CCCCCCCC(=O)O`, the absorption maximum is 317.3 nm (in C1COCCO1); 313.5 nm (in CCCCCC); 315.3 nm (in CCCCCCCCCC); 315.2 nm (in CCCCO); 313.8 nm (in CCO); 313.5 nm (in CCOCC). In addition, the absorption maximum by setting is: (in CO) 313 nm; (in ClC(Cl)Cl) 319.6 nm; (in c1ccccc1) 320 nm.
In turn, `CC(C)(C)/C=C1\C=C(c2ccccc2)C=C1c1ccccc1` came in with an absorption maximum (in C1CCOC1) of 400 nm.
For the setting “in ClCCl”, `CCCCc1ccc(C#Cc2ccc3nc4ccc(C#Cc5ccc(CCCC)cc5)cn4c(=O)c3c2)cc1` came in with an absorption maximum of 383 nm.
Where the note is “in CC#N”, `CCOC(=O)c1c2c3c(cccc3c3cc4c(cc13)[Si](C)(C)O[Si]4(C)C)N(C)C2=O` came in with an absorption maximum of 376 nm.
As to `c1ccc2nc3c(nc2c1)c1c2n3CCCN2CCCC1`, the absorption maximum reads like this: (in CC#N) 419 nm; (in CCCCCC) 408 nm; (in CS(C)=O) 441 nm.
Turning to `Cc1cccc(C2=Cc3ccc4ccccc4[n+]3[B-](F)(F)O2)c1`, the absorption maximum (in ClC(Cl)Cl) stood at 429 nm.
In turn, `c1ccc2c(c1)-c1ccccc1C21c2ccccc2-c2ccncc21` had an absorption maximum (in CC1CCCO1) of 307 nm.
On to `COc1nc(Nc2ccc3cc4ccccc4cc3c2)nc(OC)n1`, for which the absorption maximum (in C1COCCO1) stood at 394 nm, the absorption maximum (in CC#N) was determined as 395 nm, the absorption maximum (in CCCCOCCCC) is given as 398 nm and the absorption maximum (in CCOC(C)=O) came out at 395 nm.
Take `c1ccc(-c2ccc(-c3ccc(N(c4ccccc4)c4ccccc4)cc3)c3nsnc23)cc1`: the absorption maximum amounted to 437 nm (in C1CCOC1), 424 nm (in CC(C)=O), 438 nm (in CCCCCC) and 435 nm (in CCOCC).
In turn, `Cc1ccc(CN2/C(=C/C=C3\CCCC(/C=C/C4=[N+](Cc5ccc(C)cc5)c5ccccc5C4(C)C)=C3Cl)C(C)(C)c3ccccc32)cc1` yielded an absorption maximum (in CO) of 785 nm.
The molecule `CN(C)c1ccc(/C=C/c2cnccn2)cc1` gave an absorption maximum (in ClCCl) of 389 nm.
On to `C(#Cc1cc(C#Cc2cccs2)c(C#Cc2cccs2)c(C#Cc2cccs2)c1C#Cc1cccs1)c1cccs1`, for which the absorption maximum (in ClCCl) is 372 nm.
`CC1=C[C@]2(C)C(=C3C(=C4C(C)=C(c5ccc(-c6nc(-c7ccccc7)c(-c7ccccc7)[nH]6)cc5)S[C@]42C)C(F)(F)C(F)(F)C3(F)F)S1` yielded an absorption maximum (in C1CCOC1) of 505 nm.
For the molecule `Cc1cc(C)c(C2=[N+]3C(=Cc4c(C)cc(C)n4[B-]3(F)F)c3ccccc32)[nH]1`, the absorption maximum reads like this: (in C1CCOC1) 609 nm; (in CC#N) 601 nm; (in CCCCCC) 610 nm; (in CO) 603 nm; (in Cc1ccccc1) 616 nm; (in ClCCl) 609 nm.
In the case of `CCN(CC)c1ccc2cc(-c3cn4ccccc4n3)c(=O)oc2c1`, the absorption maximum by setting is: (in C1CCOC1) 408 nm; (in CC#N) 421 nm; (in CCO) 424 nm; (in CCOC(C)=O) 407 nm; (in CN(C)C=O) 425 nm; (in CO) 423 nm. The absorption maximum is reported as 428 nm (in CS(C)=O), 407 nm (in Cc1ccccc1), 425 nm (in ClC(Cl)Cl) and 429 nm (in ClCCl).
`CN(C)c1ccc(/C=C/c2cnc(/C=C/c3ccc(C#N)cc3)o2)cc1` gave an absorption maximum (in ClCCl) of 432 nm.
Molecule `F[Si](c1ccccc1)(c1ccccc1)c1cccc2ccccc12` registered an absorption maximum (in C1CCOC1) of 286 nm.
With `O=C(NCc1cc(=O)oc2cc([O-])c(Br)cc12)c1cccnc1`, the absorption maximum (in O) amounted to 370 nm.
For the setting “in CC#N”, `C(=C\c1nc(-c2ccccc2)c2ccccn12)/c1nc(-c2ccccc2)c2ccccn12` displayed an absorption maximum of 438 nm.
For `CN(C)c1ccc2nc(/C=C/c3ccccc3)c(=O)oc2c1`, the absorption maximum reads like this: (in C1CCCCC1) 438.5 nm; (in C1COCCO1) 453 nm; (in CC#N) 463 nm; (in CC(C)=O) 462 nm; (in CCCCCCC) 436 nm; (in CCO) 466 nm. Also, the absorption maximum is, setting by setting: (in CCOC(C)=O) 457 nm; (in CN(C)C=O) 469 nm; (in CS(C)=O) 475 nm; (in Cc1ccccc1) 459.5 nm; (in ClC(Cl)Cl) 467 nm; (in ClCCl) 467.5 nm.
Regarding `CC[N+]1(CC)CN2C(=N1)C(C(=O)[O-])=Cc1ccccc12`, the absorption maximum runs as follows: (in CN(C)C=O) 378 nm; (in O) 369 nm.
In the case of `F[B-]1(F)OC(c2ccccc2)=Cc2cc(Cl)nc[n+]21`, the absorption maximum stood at 374 nm (in C1CCOC1); 371 nm (in CC#N); 373 nm (in CCCCCC); 377 nm (in Cc1ccccc1); 376 nm (in ClC(Cl)Cl); 375 nm (in ClCCl).
In turn, `BrCCCCCCCCCCCCOc1cc2ccc3cccc4ccc(c1)c2c34` yielded an absorption maximum (in Cc1ccccc1) of 384 nm.
With `COc1cc(/C=C2/SC(=O)NC2=O)cc(OC)c1O`, the absorption maximum runs as follows: (in C1CCCCC1) 354 nm; (in C1COCCO1) 367 nm; (in CC#N) 362 nm; (in CN(C)C=O) 341 nm; (in CO) 359 nm; (in O) 358 nm. The absorption maximum is on record as 364 nm (in OCC(O)CO) and 370 nm (in OCCO).
